EC50, CC50 and IC50 data for five molecules are collected here from patent publication US20230271943A1, “COMPOUNDS AS DHODH INHIBITORS” (Nanjing Zenshine Pharmaceuticals Co., Ltd., priority 2020, published 2023).

One data set relates to A/PR/8/34 (H1N1) strain. Nature of the data set: Antiviral CPE assay in MDCK cells, A/PR/8/34 (H1N1). Type of data set: cell-based. As to conditions: Influenza A virus, 120 h, 5 days, CCK-8, read-out: Activity of anti-A/PR/8/34 (H1N1) EC50.
The nature of the next data set: in vitro. As to conditions: dog.
In a further data set the target is recombinant human DHODH (Homo sapiens, UniProt Q02127). Kind of data set: Biochemical enzymatic assay (DCIP bleaching). As to conditions: DCIP absorbance 600 nm, 60 min RT. The protocol:
The biochemical activity of DHODH was measured by the bleaching of the dye 2,6-dichlorophenolindophenol (DCIP) (Knecht W. et al., Biochem. Pharmacol. 1998, 56, 1259-1264). The assay was conducted in buffer containing 50 mM Tris, 150 mM KCI, and 0.1% Triton® X-100 (pH 8.0). 5 ng DHODH protein in 50 µL assay buffer was mixed in a well of 96-well clear assay plate (Corning Cat#3599) with 25 µL series concentration of inhibitor at room temperature for 30mins prior to adding 25 µL substrate solution (1 mM L-Dihydroorotic acid, 0.1 mM Decylubiquinone, 0.06 mM DCIP). After incubation at RT for 60mins, absorbance at 600 nm was obtained using a PerkinElmer multimode plate-reading spectrophotometer. Purified recombinant human DHODH was purchased from R&D systems (Catalog# 10062-DD-020), L-dihydroorotic acid (Sigma, D7128), decylubiquinone (Sigma, D7911), DCIP (Sigma, D1878) and other chemicals were purchased from Sigma-Aldrich.

The subject of another data set is MV-4-11 cells. Kind of data set: MV-4-11 cell proliferation assay (CellTiter-Glo). Type of data set: cell-based. As to conditions: Homo sapiens, MV4-11, 72 h, read-out: MV-4-11 Cell Proliferation Assay IC50. The protocol:
5000 cells/well of MV-4-11 cells were seeded in IMDM 10% fetal calf serum (FBS, BI, Catalog#) in 96-well plates. The next day, cells were incubated with different concentrations of test compounds for 72 h. Cellular viability was analyzed using CellTiter-Glo® Luminescent Cell Viability Assay (Promega, #G7570) according to manufacturer’s instructions.

For a further data set, the system named is ZIKV strain. Nature of the data set: microbe, parasite or virus in culture. Format: cell-based. As to conditions: Zika virus, Vero, 72 h, read-out: Activity of anti-ZIKV EC50.
The subject of the next data set is H7N9 strain. Kind of data set: microbe, parasite or virus in culture. Type of data set: cell-based. As to conditions: Influenza A virus, H7N9, MDCK, 120 h, read-out: Anti-H7N9 EC50.
In a further data set the test system is H1N1(XJ49) strain. Kind of data set: Antiviral CPE assay in MDCK cells, H1N1 (XJ49). As to conditions: Influenza A virus, H1N1, 120 h, 5 days, CCK-8, read-out: anti-H1N1 (XJ49) EC50. Format: cell-based.

recombinant human DHODH, sequence (Q02127 whole entry): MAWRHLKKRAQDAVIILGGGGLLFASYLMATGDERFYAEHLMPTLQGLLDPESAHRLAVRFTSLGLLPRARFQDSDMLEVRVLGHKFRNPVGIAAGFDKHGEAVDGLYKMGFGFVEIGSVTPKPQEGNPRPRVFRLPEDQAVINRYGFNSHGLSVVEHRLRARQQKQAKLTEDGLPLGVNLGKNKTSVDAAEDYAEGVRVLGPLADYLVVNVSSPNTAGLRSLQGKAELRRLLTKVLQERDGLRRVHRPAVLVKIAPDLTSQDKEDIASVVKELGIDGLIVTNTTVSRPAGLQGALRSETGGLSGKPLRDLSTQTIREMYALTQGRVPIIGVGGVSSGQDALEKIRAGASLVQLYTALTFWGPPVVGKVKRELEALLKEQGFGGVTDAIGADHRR

On to `O=C1c2c(O)c(=O)ccn2N([C@@H]2c3ccccc3SCc3c2ccc(F)c3F)[C@@H]2COCCN12` [Baloxavir, reference compound], for which the EC50 in the data set with A/PR/8/34 (H1N1) strain worked out at 1.1 nM. In addition, the CC50 in “in vitro” was determined as 18 nM.

In the case of `CCC(CC)O[C@@H]1C=C(C(=O)O)C[C@H](N)[C@H]1NC(C)=O` [Oseltamivir acid, reference compound], in the data set with A/PR/8/34 (H1N1) strain, the EC50 worked out at […]. Besides, in “in vitro”, the CC50 is more than 100 nM.

On to `CCn1c(CO)nn(-c2cc3c(cc2F)c(=O)c(-c2c(F)cccc2Cl)nn3C(C)C)c1=O` [Compound 2, 3-(2-chloro-6-fluorophenyl)-7-(4-ethyl-3-(hydroxymethyl)-5-oxo-4,5-dihydro-1H-1,2,4-triazol-1-yl)-6-fluoro-1-isopropylcinnolin-4(1H)-one], for which the values for the IC50 at recombinant human DHODH and in the data set with MV-4-11 cells were 97 nM and 0.09 nM, respectively. In the data set with A/PR/8/34 (H1N1) strain, the EC50 is 64 nM. In addition, in the data set “in vitro”, the CC50 was more than 1000 nM.

Take `CCn1c(CO)nn(-c2cc3c(cc2F)c(=O)c(-c2c(F)cccc2Cl)nn3C(C)C(F)(F)F)c1=O` (stereo not shown) [Compound 1, 3-(2-chloro-6-fluorophenyl)-7-(4-ethyl-3-(hydroxymethyl)-5-oxo-4,5-dihydro-1H-1,2,4-triazol-1-yl)-6-fluoro-1-(1,1,1-trifluoropropan-2-yl)cinnolin-4(1H)-one]: the IC50 at recombinant human DHODH is 215 nM.

As for `CCn1c(CO)nn(-c2cc3c(C(C)C)nn(-c4c(F)cccc4Cl)c(=O)c3cc2F)c1=O` [Compound 4, 2-(2-chloro-6-fluorophenyl)-6-(4-ethyl-3-(hydroxymethyl)-5-oxo-4,5-dihydro-1H-1,2,4-triazol-1-yl)-7-fluoro-4-isopropylphthalazin-1(2H)-one], the IC50 at recombinant human DHODH worked out at 11 nM; in the data set with MV-4-11 cells it was 0.9 nM. For the same molecule, the EC50 came out at 0.37 nM with ZIKV strain, 23 nM in the data set on A/PR/8/34 (H1N1) strain, 14 nM in the data set on H7N9 strain and 5.7 nM with H1N1(XJ49) strain. Further, the CC50 in “in vitro” was more than 1000 nM.
